The subject of the test is primary cortical neurons. The experiment in a line: Mitochondrial membrane potential (TMRM), primary cortical neurons. The note with it: overnight treatment; n = 3, with 3 replicates. In kind it is cell-based, rat. The procedure: Bottom, quantification of the form factor (degree of branching) and aspect ratio (major/minor axis length). At least 10,000 mitochondrial fragments were analyzed for each condition. Mitochondrial reactive oxygen species production (MitoSox Red) (b) and membrane potential (TMRM) (c) after overnight treatment with indicated concentrations of peptide (n = 3, with 3 replicates). […] Overlay of live microscopy imaging at time 0 (green) and 150 (red) seconds. […] An estimation of the % mobile mitochondria from the Pearson coefficient of each set of images. Data are mean ± s.e.
Following treatment, cells were washed with treatment media.
The Cy5 filter was used to autofocus on the mitochondria plane. Nuclei were imaged with a DAPI filter and the mitoROS (MitoSox) or membrane potential (TMRM) image was acquired with a TRITC filter. […] MitoROS was calculated as the average MitoSox signal per cell. The mitochondrial membrane potential was calculated as the average TMRM signal in the mitochondrial mask.
Mitochondrial reactive oxygen species determination […]
and 1% penicillin-streptomycin solution (Corning, NY, USA). Primary cortical neurons were treated with increasing concentrations of peptides in NbActiv1 media. HD Patient- and adult- […]
and without phenol red. […] After incubation
HEPES, and without phenol red. […]
calculated as the average MitoSox signal per cell. […]

Where no end group is shown, it is not given here.

As to “YGRKKRRQRRRGSGIIQLPEIVVV-NH2 (C-terminus assumed) [P259]”, the mitochondrial membrane potential result is listed as “decreased membrane potential”.

These data come from article PMC6145916, “Interaction of mitochondrial fission factor with dynamin related protein 1 governs physiological mitochondrial function in vivo” (Scientific Reports, 2018).
